Results taken from a melting point compilation (Tetko et al.; mined from patent text by program, amines drawn as free bases though some values may be those of a salt).

`COC(=O)C1=C(N)C(C)SC1` (stereo not given) showed a melting point of 60 °C.
In the case of `CNC(=O)Nc1cc(NC(=O)/C=C/c2ccc(C(C)(C)C)cc2)ccc1Cl`, the melting point is reported as 120 to 122 °C.
Work on `Clc1ccc2[nH]nc(I)c2c1` yielded a melting point of 198 to 199 °C.
Compound `CCc1ccccc1NC(=O)c1ccccc1SSc1ccccc1C(=O)Nc1ccccc1CC` has a melting point of 255 to 256 °C.
Work on `CCC1Cc2cc(OCCCC(=O)O)c(Cl)c(Cl)c2C1=O` (stereo not given) yielded a melting point of 146 to 148 °C.
For `CC(C)(C)OC(=O)NCCNS(=O)(=O)c1cc([N+](=O)[O-])c(Cl)s1`, the melting point was 116 °C.
In the case of `COc1ccc([N+](=O)[O-])c2nccc(Cl)c12`, the melting point is reported as 125 to 138 °C.
Compound `Cn1cnc(COc2nn3c(-c4ccc(F)cc4)nnc3cc2-c2ccccc2)n1` has a melting point of 233 to 235 °C.
`CC(=O)N1C(=O)N(c2ccc(C#N)c(C(F)(F)F)c2)C(=O)C1(C)C` gave a melting point of 129 to 130 °C.
Work on `CON(C)C(=O)CNC(=O)OC(C)(C)C` yielded a melting point of 92 to 95 °C.
`CON(C)C(=O)C(Cc1c[nH]c2ccccc12)NC(=O)OC(C)(C)C` (stereo not given) gave a melting point of 129 to 130 °C.
With `COc1cccc(OC2COc3ccc(OCc4ccc5ccccc5n4)cc3C2O)c1` (stereo not given) the melting point was 128 to 129 °C.
`CN(C(CCN1C(=O)c2ccccc2C1=O)C(=O)O)S(=O)(=O)c1ccc(Oc2ccc(Cl)cc2)cc1` (stereo not given) gave a melting point of 166 to 167 °C.
Compound `N#CC1CCN(CCc2ccc(F)cc2)CC1` has a melting point of 47 to 48 °C.
In the case of `CS(=O)(=O)c1ccc(-n2cnc(Cl)c2-c2ccc(Cl)c(Cl)c2)cc1`, the melting point is reported as 156 to 157 °C.
Compound `O=c1cc(CCN2CCC(c3c[nH]c4ccccc34)CC2)c2ccccc2[nH]1` has a melting point of 259 to 260 °C.
With `COc1ccc(/C=C/c2cc(/C=C/c3ccc4cc[nH]c4c3)n[nH]2)c(OCc2ccccn2)c1` the melting point was 107 to 115 °C.
Work on `COC1=NC(C)=C(C(=O)OC(C)C)C(c2cccc([N+](=O)[O-])c2)N1C(=O)N(C)Cc1ccccc1` (stereo not given) yielded a melting point of 145 to 146 °C.
Work on `CCS(=O)(=O)C1C(OC)(OC)CC2C3CCC4=CC(=O)C=CC4(C)C3(F)C(O)CC21C` (stereo not given) yielded a melting point of 268 to 270 °C.
For `CCOc1ccc2[nH]c3c(c2c1)C[C@@](C)(C(=O)OC)N[C@@H]3c1cccc(O)c1` (racemic), the melting point was 173 to 175 °C.
In the case of `NS(=O)(=O)c1ccc(-n2nc(CO)cc2-c2ccc(Cl)cc2)cc1`, the melting point is reported as 192 to 194 °C.
With `COC(=O)c1ccc(-c2ccc(OC)c(C(C)(C)C)c2)s1` the melting point was 94 to 95 °C.
In the case of `OCC1OC(n2c(Cl)nc3ccc(Cl)cc32)C(O)C1O` (stereo not given), the melting point is reported as 162 to 163 °C.
For `COc1cc2sc(C(=O)O)c(Cl)c2cc1OC`, the melting point was > 260 °C.
In the case of `CCCCN(CCCC)c1ccc(C=Cc2ccc(C=CC3=C(C#N)C(=C(C#N)C#N)OC3(c3ccccc3)C(F)(F)F)cc2)c(OC)c1` (stereo not given), the melting point is reported as 176 to 178 °C.
In the case of `COC(=O)c1ccc(Sc2ccccc2)cc1Sc1ccccc1`, the melting point is reported as 124 °C.
In the case of `CCC(Oc1ccc(CCC(=O)c2ccc(-c3ccc(C(F)(F)F)cc3)s2)c(Cl)c1Cl)C(=O)O` (stereo not given), the melting point is reported as 169 to 171 °C.
Work on `C[N+]([O-])=C(Cn1ccnc1)c1ccco1` yielded a melting point of 120 to 123 °C.
With `OCCC1(c2ccc(Cl)c(Cl)c2)CCNC1` (stereo not given) the melting point was 91 to 94 °C.
In the case of `CCCC[C@H](NC(=O)[C@H](COC(C)(C)C)NC(=O)OCc1ccccc1)C(=O)CSCc1ccco1`, the melting point is reported as 71 to 73 °C.
With `O=C(CC1CCCCC1)Nc1n[nH]c(-c2ccc(F)cc2)c1-c1ccncc1` the melting point was 296 to 300 °C.
Work on `Oc1ccc(OCC(O)CNC2CCN(c3ccc(Cl)cn3)CC2)cc1` (stereo not given) yielded a melting point of 148 to 150 °C.
For `CN(Cc1cccc(Cl)c1)c1ccc(C(=O)O)nc1`, the melting point was 138 to 140 °C.
With `Cc1nnc2n1-c1ccc(Br)cc1C(c1ccccc1Cl)=CC2` the melting point was 250 to 252 °C.
For `OC(CCCN1CCC(O)(c2ccc(Cl)cc2)CC1)c1ccc(F)cc1` (stereo not given), the melting point was 128 to 130 °C.
With `COc1ccc(CNc2nc(N3CCCC3CO)nnc2C(=O)NCc2ncccn2)cc1Cl` (stereo not given) the melting point was 170 to 173 °C.
`CC(C)COC(=O)Nc1nc(N2CC=CCC2)nc2nc(=O)on12` showed a melting point of 210 to 215 °C.
In the case of `CO[C@@H]1CN(Cc2ccccc2)CC[C@H]1NC(=O)c1cccc(C(F)(F)F)c1` (relative stereo), the melting point is reported as 135 °C.
In the case of `BrCCCCCc1nc2ccccc2[nH]1`, the melting point is reported as 134 to 136 °C.
`CN1Cc2c(C(N)=O)ncn2-c2ccc(F)cc2C1=O` gave a melting point of 272 to 273 °C.
Compound `C[C@H](O)C(=O)Nc1ccccn1` has a melting point of 102 to 104 °C.
Work on `COc1cccc(-c2cc(Cl)cc3c2OC(CN)C3)c1OC` (stereo not given) yielded a melting point of 120 to 122 °C.
Compound `CS(=O)(=O)NC(=O)c1ccc(Cl)cc1NC(=O)c1cc(-c2ccc(Cl)cc2)oc1C(F)(F)F` has a melting point of 259 to 262 °C.
For `CCOc1ccc(-c2nc3c4ccccc4ccc3n2C)cc1`, the melting point was 138 to 139 °C.
`COC(=O)c1cc(-c2ccccc2C)c(C(=O)OC)cc1I` showed a melting point of 105 to 109 °C.
`COc1ccc(CCNC(C)=O)cc1OC` showed a melting point of 99 to 100 °C.
In the case of `CCc1cc(NCc2ccc3oc(-c4ccccc4C#N)c(Br)c3c2)n2nccc2n1`, the melting point is reported as 186 to 194 °C.
In the case of `CCOP(=O)(/C=C/c1cn(-c2ccccc2)nc1NC)OCC`, the melting point is reported as 132 to 133 °C.
`O=c1[nH]c2ccc(C(F)(F)F)cc2c(-c2cc(Cl)ccc2O)c1NS(=O)(=O)c1ccccc1` showed a melting point of 262 to 265 °C.
With `CC(=O)c1ccc2c(c1)C(NC(=NC#N)Nc1ccccc1)C(O)C(C)(C)O2` (stereo not given) the melting point was 182 to 184 °C.
Work on `CCCc1nc(S(=O)(=O)Nc2ccccc2Br)nn1-c1ccccc1` yielded a melting point of 119 to 121 °C.
In the case of `NC(=O)C1(c2ccc(C#Cc3ccccc3)cc2)CC1`, the melting point is reported as 174 to 176 °C.
In the case of `CCC12CCC(=O)CC1CCc1cc(O)ccc12` (stereo not given), the melting point is reported as 168 to 170 °C.
Compound `CCc1nnc(-c2ccc([N+](=O)[O-])cc2)n1-c1ccc(OC)cc1` has a melting point of 174 °C.
With `O=c1[nH]ncn1C(c1cccc(Cl)c1)c1ccnc2ccccc12` (stereo not given) the melting point was 244 °C.
With `CC1COCc2nc3c(N)nc4ccc(OCCN5CCOCC5)cc4c3n21` (stereo not given) the melting point was 186 to 188 °C.
For `CCC(CC)n1ccn(-c2ccc(N3CCN(c4ccc(OC)cc4)CC3)cc2)c1=O`, the melting point was 196 °C.
In the case of `O=C(Nc1ccc2[nH]ccc2c1)C(=O)N1CCC(Cc2ccccc2)CC1`, the melting point is reported as 68 to 72 °C.
With `O=C(O)CC[C@H](NCC(O)C(O)C(O)C(O)CO)C(=O)O` (stereo not given in full) the melting point was 94 °C.
`C#CCN1C(=O)C(C)Oc2cc(Cl)c(-c3ccc(C(F)(F)F)n(C)c3=O)cc21` (stereo not given) showed a melting point of 203 to 204 °C.
`CS(=O)(=O)c1nc(Cl)cc(OCc2ccccc2)n1` showed a melting point of 74 to 77 °C.
In the case of `CN(C)CCCOc1ccnc2cc([N+](=O)[O-])ccc12`, the melting point is reported as 146 to 149 °C.
`C#CCOc1cc2c(cc1OC)C(=C(C#N)C(=O)OCC)CC2(C)C` showed a melting point of 132 to 136 °C.
In the case of `CCN(CC)S(=O)(=O)N1CCNC1=O`, the melting point is reported as 80 to 82 °C.
With `CS(=O)(=O)N(Cc1ccc(Cl)cc1)CC(O)(Cn1cncn1)c1ccc(Cl)cc1Cl` (stereo not given) the melting point was 121 to 122 °C.
`COc1ccc(COc2ccc(CSc3ccc(OCC(=O)O)c(C)c3)cc2)cc1` showed a melting point of 150 to 152 °C.
`N#CC=Cc1ccc(Cl)s1` gave a melting point of 41 to 43 °C.
`COc1cc(CCCC2OC(=O)NC2=O)ccc1OCc1nc(-c2ccccc2)oc1C` (stereo not given) gave a melting point of 161 to 162 °C.
For `c1cnc(SCc2nc3ccccc3[nH]2)nc1`, the melting point was 154 to 155 °C.
In the case of `CCCn1nc(C(C)C)c(C(N)=O)c1Cc1ccc(-c2ccccc2S(=O)(=O)NC(=O)c2ccccc2)cc1`, the melting point is reported as 197 to 200 °C.
In the case of `c1cc(-c2cc3nccnc3[nH]2)ccn1`, the melting point is reported as 324 to 326 °C.
For `Cc1cn(C)cc(-c2cccc(Cl)c2)c1=O`, the melting point was 143 to 144 °C.
For `COC(=O)C1(C)CN(C(=S)Nc2ccc(Cl)cc2)N=C1c1ccc(Cl)cc1` (stereo not given), the melting point was 69 to 78 °C.
In the case of `CCCc1c(OCCCCCC(=O)NCCSc2ccncc2)ccc(C(C)=O)c1O`, the melting point is reported as 63 to 65 °C.
In the case of `COc1cc(/C=C/[N+](=O)[O-])cc(OC)c1`, the melting point is reported as 132 °C.
`OC1Cn2ccnc2C(=C2CCN(CCc3ccc(OCc4ccc5ccccc5n4)cc3)CC2)c2ccsc21` (stereo not given) gave a melting point of 242 °C.
`O=C(O)C(O)c1cccc(OCc2ccccc2Cl)c1OCc1ccncc1` (stereo not given) showed a melting point of 181 to 183 °C.
`O=c1nc(NCc2ccccc2F)c(F)cn1-c1ccsc1` gave a melting point of 75 to 78 °C.
`Cc1cccc(C)c1Sc1cc(C(C)(C)C)cc(C(C)(C)C)c1O` gave a melting point of 101 to 102 °C.
In the case of `CCCN1N=C(c2ccc(OC)c(OC)c2)[C@@H]2CCCC[C@@H]2C1=O` (relative stereo), the melting point is reported as 95 to 96 °C.
`COc1ccc(COc2cccc(OC)c2C(=O)C=C(SC)SC)cc1` showed a melting point of 93 to 94 °C.
`CS(=O)c1ccc(-c2ccc(-c3ccc(F)cc3)s2)s1` (stereo not given) showed a melting point of 153 to 157 °C.
`COc1ccc(Br)c2c1C(=O)CC2` showed a melting point of 125 to 128 °C.
In the case of `Nc1ccc(Br)c2ccn3c(=O)c(C(=O)O)cnc3c12`, the melting point is reported as 283 to 284 °C.
Compound `Cc1ccc2c(c1)c1c(n2C(=O)c2ccccc2)CCCC1C(=O)O` (stereo not given) has a melting point of 149 to 153 °C.
Work on `COCC#Cc1cc2c(O)c(C(=O)NCc3ccc(Cl)cc3)cnc2s1` yielded a melting point of 215 to 218 °C.
With `CN(C)c1ccc(NC(=O)C2C(=O)C3CC[C@](C)(C2=O)C3(C)C)cc1` (stereo not given in full) the melting point was 93 to 95 °C.
In the case of `CCc1cc2c(s1)-n1c(C)nnc1C(CCCC(=O)Nc1ccccc1)N=C2c1ccc(Cl)cc1` (stereo not given), the melting point is reported as 238 to 240 °C.
With `C#Cc1cc2nc(O)c(O)nc2cc1[N+](=O)[O-]` the melting point was > 300 °C.
Work on `O=C(N[C@@H](CS)C(=O)O)C(Sc1nc2cc(Cl)ccc2s1)c1ccccc1` (stereo not given in full) yielded a melting point of 155 to 158 °C.
Work on `CNC(=O)NS(=O)(=O)c1ccccc1C=CC(F)(F)F` yielded a melting point of 190 to 192 °C.
Work on `CCOC(=O)C(C#N)=NOC(=O)OCC(Cl)(Cl)Cl` yielded a melting point of 51 to 53 °C.
For `CCOC(=O)C1=CC(NC(=NC(=O)OC(C)(C)C)NC(=O)OC(C)(C)C)C(NC(C)=O)C(C(O)C2COC(C)(C)O2)O1` (stereo not given), the melting point was 118 to 120 °C.
For `Cc1ccc(-c2ccccc2-c2n[nH]c(C(c3ccccc3)(c3ccccc3)c3ccccc3)n2)cc1`, the melting point was 120 to 122 °C.
Compound `CC(NC(=O)C(CS)C1CCc2ccccc21)C(=O)O` (stereo not given) has a melting point of 121 °C.
With `Cn1c(-c2ccc(OC3CCN(C4CCC4)CC3)cc2)nc2ncccc2c1=O` the melting point was 146 to 150 °C.
Work on `O=C(OCc1ccccc1)N1CCOc2c(Br)cc(Cl)cc21` yielded a melting point of 95 to 97.7 °C.
For `Cc1noc(NS(=O)(=O)c2ccccc2-c2ccc(Cn3c(=O)oc4ccccc43)cc2)c1C`, the melting point was 182 to 183 °C.
For `CC(=O)N1CCc2cc3c(cc21)C(=O)C(=O)N3`, the melting point was > 250 °C.
For `CCCn1cccc1C(N)=S`, the melting point was 88 to 91 °C.
